Patent publication US20200404919A1, “USE OF HETEROARYL-TRIAZOLE AND HETEROARYL-TETRAZOLE COMPOUNDS AS PESTICIDES IN PLANT PROTECTION” (Bayer Aktiengesellschaft, priority 2018, published 2020)

How the values were obtained:
Assay type in all cases: in vivo
[1] = test system: Phaedon cochleariae; assay: Phaedon cochleariae - spray test; settings: in Brassica rapa, foliar, 168 h, read-out: mortality in %
In short: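 Mortality read 7 days after infestation; 100% means every larva dead, 0% none. Larvae placed on dried Chinese cabbage leaf disks previously sprayed with compound preparation diluted in emulsifier-containing water (1000 ppm).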

[2] = test system: Spodoptera frugiperda; assay: Spodoptera frugiperda - spray test; settings: in Zea mays, 168 h, read-out: mortality in %
In short: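 Read-out: % larval mortality at day 7, where 100% means all killed and 0% none killed. Compound diluted in water with 1000 ppm emulsifier, sprayed onto Zea mays leaf sections; dried sections then infested with S. frugiperda larvae.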

[3] = test system: Myzus persicae; assay: Myzus persicae - oral test; settings: 120 h, read-out: mortality in %
In short: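 Scoring at day 5 gives percent mortality (0% none, 100% all killed) of a mixed aphid population that sucked compound preparation in sugar-supplemented IPL41 medium through a parafilm seal.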

[4] = test system: Aphis gossypii; assay: Aphis gossypii - oral test; settings: 120 h, read-out: mortality in %
In short: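 Oral exposure: compound solution, prepared from acetone concentrate diluted in water, combined with sugar-supplemented IPL41 medium and sealed under parafilm for aphid feeding. Percent kill recorded at day 5.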

[5] = test system: Diabrotica balteata; assay: Diabrotica balteata - spray test; settings: 168 h, 160 μg/well, germinated wheat seeds, larvae, after 7 days, read-out: efficacy in %
In short: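 Efficacy (%) read 7 days after infesting treated seedlings with 10-20 banded cucumber beetle larvae, 100% meaning growth as in uninfected untreated control and 0% no growth. Test solutions in water containing 1000 ppm emulsifier were sprayed onto wheat seeds germinated for 1 day on agar.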

[6] = test system: Tetranychus urticae; assay: Tetranychus urticae - spray test OP-resistant; settings: foliar, 144 h, French bean leaf disks, all instars, after 6 days
Procedure: Tetranychus urticae—Spray Test OP-Resistant
To produce a suitable preparation of active compound, 1 part by weight of active compound is mixed with the stated amount of solvents and is diluted with water, containing an emulsifier concentration of 1000 ppm, to the desired concentration. Further test concentrations are prepared by dilution with emulsifier containing water.
French bean (Phaseolus vulgaris) leaf disks infected with all instars of the two spotted spidermite (Tetranychus urticae), are sprayed with a preparation of the active ingredient of the desired concentration.
After 6 days mortality in % is determined. 100% means all spider mites have been killed and 0% means none of the spider mites have been killed.

[7] = test system: Nezara viridula; assay: Nezara viridula - spray test 1; settings: in Hordeum vulgare, 96 h, read-out: mortality in %
In short: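 Percent kill of Nezara viridula larvae was read 4 days after spraying infested barley (Hordeum vulgare). The spray was the compound concentrate diluted in 1000 ppm emulsifier-containing water.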

[8] = test system: Nilaparvata lugens; assay: Nilaparvata lugens - spray test 1; settings: in Oryza sativa, 96 h, read-out: mortality in %, 500 g/ha, rice plants, after 4 days
In short: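 Mortality (%) was scored 4 days after infesting treated plants with brown planthopper, where 100% means all insects were killed. Compound was applied by spraying rice (Oryza sativa) at the desired concentration, diluted in water carrying 1000 ppm emulsifier.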

[9] = test system: Culex quinquefasciatus; assay: Culex test (CULXFAS surface treatment & contact assay); settings: 30 minutes exposure, 24 hours after contact, read-out: efficacy (mortality in percent); for mortality at 4 mg/m2: surface concentration 4 mg/m^2, glazed tile; for mortality at 20 mg/m2: surface concentration 20 mg/m^2, glazed tile
Procedure: Culex Test (CULXFAS Surface Treatment & Contact Assay)
Solvent: Acetone+2000 ppm rapeseed oil methyl ester (RME)
(§1) In order to produce a sufficient, active ingredient containing solution it is necessary to solve the test-compound in an acetone/RME solvent mixture. This solution is pipetted onto a glazed tile and after evaporation of the acetone, adult mosquitoes of the species Culex quinquefasciatus (Brown house mosquito) are placed onto the dried surface. The exposure time is 30 minutes.
(§2) Mortality in percent (%) is determined 24 hours after contact to the treated surface. 100% mortality means that all test-insects are dead, whereas 0% means that not a single insect died.

[10] = test system: Aedes aegypti strain MONHEIM; assay: Aedes test (AEDSAE surface treatment & contact assay); settings: 30 minutes exposure, 24 hours after contact, read-out: efficacy (mortality in percent); for mortality at 4 mg/m2: surface concentration 4 mg/m^2, glazed tile; for mortality at 20 mg/m2: surface concentration 20 mg/m^2, glazed tile
Procedure: Aedes Test (AEDSAE Surface Treatment & Contact Assay)
Solvent: Aceton+2000 ppm rapeseed oil methyl ester (RME)
as §1, with “Aedes aegypti strain MONHEIM” for “Culex quinquefasciatus (Brown house mosquito)”
as §2

[11] = test system: Musca domestica strain WHO-N; assay: Musca domestica test (MUSCDO surface treatment & contact assay); settings: 30 minutes exposure, 24 hours after contact, read-out: efficacy (mortality in percent); for mortality at 4 mg/m2: surface concentration 4 mg/m^2, glazed tile; for mortality at 20 mg/m2: surface concentration 20 mg/m^2, glazed tile
Procedure: Musca domestica Test (MUSCDO Surface Treatment & Contact Assay)
(§3) Solvent: Aceton+2000 ppm Rapeseed oil methyl ester (RME)
as §1, with “flies” for “mosquitoes”, “Musca domestica strain WHO-N” for “Culex quinquefasciatus (Brown house mosquito)”
as §2

[12] = test system: Blattella germanica strain PAULINIA; assay: Blattella germanica test (BLTTGE surface treatment & contact assay); settings: 30 minutes exposure, 24 hours after contact, read-out: efficacy (mortality in percent); for mortality at 4 mg/m2: surface concentration 4 mg/m^2, glazed tile; for mortality at 20 mg/m2: surface concentration 20 mg/m^2, glazed tile
Procedure: Blattella germanica Test (BLTTGE Surface Treatment & Contact Assay)
as §3
as §1, with “animals” for “mosquitoes”, “Blattella germanica strain PAULINIA” for “Culex quinquefasciatus (Brown house mosquito)”
as §2

[13] = test system: Meloidogyne incognita; assay: Meloidogyne incognita - test; settings: 336 h, salad seedlings in sand, after 14 days, read-out: nematicidal activity (percentage of gall formation)
Procedure: Meloidogyne incognita—Test
Solvent: 125.0 parts by weight of acetone
To produce a suitable preparation of active compound, 1 part by weight of active compound is mixed with the stated amount of solvent, and the concentrate is diluted with water to the desired concentration.
Vessels are filled with sand, a solution of the active ingredient, a suspension containing eggs and larvae of the southern root-knot nematode (Meloidogyne incognita) and salad seeds. The salad seeds germinate and the seedlings grow. Galls develop in the roots.
After 14 days the nematicidal activity is determined on the basis of the percentage of gall formation. 100% means no galls were found and 0% means the number of galls found on the roots of the treated plants was equal to that in untreated control plants.

Structure (SMILES) | mortality at 500 g/ha [1] | mortality at 500 g/ha [2] | mortality at 20 ppm [3] | mortality at 100 ppm [4] | pest or weed control at 160 µg/disc, 160 µg/well [5] | mortality at 500 g/ha [6] | mortality at 500 g/ha [7] | mortality at 500 g/ha [8] | mortality at 4 mg/m2 [9] | mortality at 20 mg/m2 [9] | mortality at 4 mg/m2 [10] | mortality at 20 mg/m2 [10] | mortality at 4 mg/m2 [11] | mortality at 20 mg/m2 [11] | mortality at 4 mg/m2 [12] | mortality at 20 mg/m2 [12] | pest or weed control at 20 ppm [13]
CC(c1ncnn1-c1ncccn1)N(CC1CC1)C(=O)c1cc(Cl)cc(OC(F)(F)F)c1 (stereo not shown) [Compound I-37, 3-chloro-N-(cyclopropylmethyl)-N-[1-(2-pyrimidin-2-yl-1,2,4-triazol-3-yl)ethyl]-5-(trifluoromethoxy)benzamide] | 100% | 100% | 100% | 100% | 100% | 90% | 100% | 100% | 80 to 100% | 80 to 100% | 80 to 100% | 80 to 100% | 80 to 100% | 80 to 100% | 80 to 100% | 80 to 100% | –
C#CCN(C(=O)c1cc(Cl)cc(C(F)(F)F)c1)C(C)c1ncnn1-c1ncccn1 (stereo not shown) [Compound I-41, 3-chloro-N-prop-2-ynyl-N-[1-(2-pyrimidin-2-yl-1,2,4-triazol-3-yl)ethyl]-5-(trifluoromethyl)benzamide] | 100% | 100% | 100% | 100% | 100% | 90% | 100% | 100% | – | – | – | – | – | – | – | – | –
CC(c1ncnn1-c1ncccn1)N(CC1CC1)C(=O)c1cc(C(F)(F)F)cc(C(F)(F)F)c1 (stereo not shown) [Compound I-48, N-(cyclopropylmethyl)-N-[1-(2-pyrimidin-2-yl-1,2,4-triazol-3-yl)ethyl]-3,5-bis(trifluoromethyl)benzamide] | 100% | 100% | 100% | 100% | 100% | – | 100% | 100% | 80 to 100% | 80 to 100% | 80 to 100% | 80 to 100% | 80 to 100% | 80 to 100% | 80 to 100% | 80 to 100% | 100%
CC(c1ncnn1-c1ncc(F)cn1)N(CC1CC1)C(=O)c1cc(Cl)cc(C(F)(F)F)c1 (stereo not shown) [Compound I-81, 3-chloro-N-(cyclopropylmethyl)-N-[1-[2-(5-fluoropyrimidin-2-yl)-1,2,4-triazol-3-yl]ethyl]-5-(trifluoromethyl)benzamide] | 100% | 100% | 100% | 100% | 100% | 80% | 100% | 100% | 80 to 100% | 80 to 100% | 80 to 100% | 80 to 100% | 80 to 100% | 80 to 100% | 80 to 100% | 80 to 100% | –
CC(c1ncnn1-c1nccc(C(F)(F)F)n1)N(CC1CC1)C(=O)c1cc(Cl)cc(C(F)(F)F)c1 (stereo not shown) [Compound I-82] | 100% | 100% | 100% | 100% | 100% | 80% | 100% | 100% | – | – | – | – | – | – | – | – | 100%
CC(c1ncnn1-c1ncccn1)N(CC1CC1)C(=O)c1cccc(SC(F)(F)F)c1 (stereo not shown) [Compound I-83] | 100% | 83% | 100% | 100% | 100% | 100% | 100% | 100% | – | – | – | – | – | – | – | – | –
CC(c1ncnn1-c1ncccn1)N(CC1CC1)C(=O)c1cc(Cl)cc(Cl)c1 (stereo not shown) [Compound I-95] | 100% | 100% | 100% | 100% | 100% | – | 100% | 90% | – | – | – | – | – | – | – | – | 90%
CCN(C(=O)c1cc(Cl)cc(C(F)(F)F)c1)C(C)c1ncnn1-c1ncccn1 (stereo not shown) [Compound I-97, 3-chloro-N-ethyl-N-[1-(2-pyrimidin-2-yl-1,2,4-triazol-3-yl)ethyl]-5-(trifluoromethyl)benzamide] | 100% | 100% | 100% | 100% | 100% | 80% | 100% | 100% | – | – | – | – | – | – | – | – | –
CC(c1ncnn1-c1ncccn1)N(CC1CC1)C(=O)c1cc(Cl)cc(SC(F)(F)F)c1 (stereo not shown) [Compound I-107, 3-chloro-N-(cyclopropylmethyl)-N-[1-(2-pyrimidin-2-yl-1,2,4-triazol-3-yl)ethyl]-5-(trifluoromethylsulfanyl)benzamide] | 100% | 100% | 100% | 100% | 100% | – | 100% | 100% | – | – | – | – | – | – | – | – | 90%
CC(c1ncnn1-c1ccncn1)N(CC1CC1)C(=O)c1cc(Cl)cc(C(F)(F)F)c1 (stereo not shown) [Compound I-110] | 100% | 100% | 100% | 100% | 100% | 95% | 100% | 100% | – | – | – | – | – | – | – | – | –
CC(c1ncnn1-c1cncnc1)N(CC1CC1)C(=O)c1cc(Cl)cc(C(F)(F)F)c1 (stereo not shown) [Compound I-112] | – | – | – | – | 100% | 90% | – | – | – | – | – | – | – | – | – | – | –
C[C@H](NC(=O)c1cc(Cl)cc(C(F)(F)F)c1)c1ncnn1-c1ncccc1Cl [Compound I-116] | 100% | 100% | 90% | 100% | 100% | 95% | 100% | 100% | – | – | – | – | – | – | – | – | –
